Source: ChEMBL document CHEMBL4376825, “Dual Inhibitors of Human DNA Topoisomerase II and Other Cancer-Related Targets” (J Med Chem, 2020)
Residues, ends and D or L forms follow the SMILES beside them. *: point of attachment. Cbz = O=C(OCc1ccccc1)*

What was measured:
[1] = Cytotoxicity against human RPMI8226/S cells after 4 hrs by MTT assay; assay type: functional, cell-based
[2] = Selectivity ratio of IC50 for […] cells to IC50 for human RPMI8226/S cells; assay type: functional
[3] = Cytotoxicity against […] cells after 4 hrs by MTT assay; assay type: functional, cell-based
[4] = Half life in human; assay type: ADME
Proteasome [5] = experiment: Inhibition of proteasome in human K562 cells assessed as half life of etoposide-induced Topoisomerase 2alpha-DNA complexes at 50 uM incubated for 2 hrs followed by etoposide washout and measured up to 120 mins by TARDIS assay (reference value: 0.5 hrs); assay type: subcellular
Proteasome [6] = experiment: Inhibition of proteasome in human K562 cells assessed as half life of mitoxantrone-induced Topoisomerase 2alpha-DNA complexes by measuring half life of complex at 50 uM incubated for 2 hrs followed by mitoxantrone washout and measured up to […] by TARDIS assay (reference value: 10 hrs); assay type: subcellular
DLD-1 = experiment: Antiproliferative activity against human DLD1 cells after 72 hrs by sulforhodamine B assay; assay type: functional, cell-based; conditions: DLD-1, 72 h
U-87 MG = experiment: Antiproliferative activity against human U87 cells after 72 hrs by sulforhodamine B assay; assay type: functional, cell-based, U-87MG ATCC
P388 = experiment: Antitumor activity against mouse P388 cells implanted in ip dosed B6D2F1 mouse assessed as T/C value administered for 4 days; assay type: functional
HeLa = experiment: Antiproliferative activity against human HeLa cells after 72 hrs by sulforhodamine B assay; assay type: functional, cell-based
Bel-7402 = experiment: Antiproliferative activity against human Bel7402 cells after 72 hrs by sulforhodamine B assay; assay type: functional, cell-based; conditions: Bel-7402, 72 h

Row | SMILES | IC50 [1] [nM] | Ratio IC50 [2] | IC50 [3] [nM] | T/C (P388) [%] | further results
1 | N[C@H]1CCN(c2c(F)cc3c(=O)c(C(=O)O)cn4c3c2Oc2c-4ccc3c2ccc2ccccc23)C1 | 690 | 4 | 2800 | – | –
2 | CC[C@@]1(O)C(=O)OCc2c1cc1n(c2=O)Cc2cc3ccccc3nc2-1 [CAMPTOTHECIN] | – | – | – | – | half-life [4]: 1.18 to 1.5 h
3 | COc1cccc2c1C(=O)c1c(O)c3c(c(O)c1C2=O)C[C@@](O)(C(=O)CO)C[C@@H]3O[C@H]1C[C@H](N)[C@H](O)[C@H](C)O1 [DOXORUBICIN] | 37 | 8.7 | 320 | – | half-life [4]: 0.0667 h
4 | CC(C)C[C@@H](C=O)NC(=O)[C@H](CC(C)C)NC(=O)[C@H](CC(C)C)NC(=O)OCc1ccccc1 (Cbz-Leu-Leu-Leu-aldehyde) | – | – | – | – | T1/2 (Proteasome [5]): > 2 h; T1/2 (Proteasome [6]): > 24 h
5 | CCCCC(C#CC(=O)OC)O/C=C/C(=O)OC (stereo not given) | – | – | – | – | IC50 (DLD-1): 850 nM; IC50 (U-87 MG): 4900 nM
6 | COc1ccc2c(ccc3c2c2c(NCCCN(C)C)ncc(C)c2n3C)c1 | – | – | – | 150 | –
7 | COc1ccc(O)c(C(=O)c2cnc3[nH]c4ccccc4c3c2)c1 | – | – | – | – | IC50 (HeLa): 60 nM; IC50 (Bel-7402): 830 nM
8 | Cc1cnc(NCCCN(C)C)c2c1[nH]c1ccc3ccccc3c12 | – | – | – | 150 | –
9 | Cc1cnc(NCCCN(C)C)c2c1[nH]c1ccc3cc(O)ccc3c12 [INTOPLICINE] | – | – | – | 270 | –
10 | N[C@@H]1CCN(c2c(F)cc3c(=O)c(C(=O)O)cn4c3c2Oc2c-4ccc3c2ccc2ccccc23)C1 | 320 | 1.6 | 500 | – | –
